This note sets out measurements from patent US9975900B2, “Substituted imidazo[1,2-α]pyrazines for treating spinal muscular atrophy” (Hoffmann-La Roche Inc., priority 2014, dated 2018).

Experiment [1] concerns full length SMN2 minigene mRNA (HEK293H cells stably transfected with the SMN2-A minigene construct). The experiment in a line: RT-qPCR assay for SMN2 minigene pre-mRNA splicing in cultured cells. The settings on record: Homo sapiens, HEK293-H, 24 hours, 7-point concentration curve, concentration giving 1.5-fold FL SMN2mini mRNA vs vehicle, read-out: EC1.5x minigene (EC1.5x concentration for production of full length SMN2 minigene mRNA). The class given is cell-based. The procedure: The reverse transcription-quantitative PCR-based (RT-qPCR) assay is used to quantify the level of the full length SMN2 minigene (referred to herein by the term “FL SMN2mini”) mRNA containing SMN2 exon 7 in a HEK293H cell line stably transfected with said minigene and treated with a test compound. Materials used and respective sources are listed below in Table 1.
The SMN2-A minigene construct was prepared as described in International Patent Application WO2009/151546A1 page 145 paragraph [00400] to page 147 paragraph [00412] (incl. FIG. 1 and FIG. 3 therein).
HEK293H cells stably transfected with the SMN2-A minigene construct (10,000 cells/well) are seeded in 200 μL of cell culture medium (DMEM plus 10% FBS, with 200 μg/mL hygromycin) in 96-well flat-bottom plates and the plate is immediately swirled to ensure proper dispersal of cells and the formation of an even monolayer of cells. Cells are allowed to attach for 6 hours. Test compounds are serially diluted 3.16-fold in 100% DMSO to generate a 7-point concentration curve. A solution of test compound (1 μL, 200× in DMSO) is added to each cell-containing well and the plate is incubated for 24 hours in a cell culture incubator (37° C., 5% CO2, 100% relative humidity). 2 replicates are prepared for each test compound concentration. The cells are then lysed in the Cells-To-Ct lysis buffer and the lysate is stored at −80° C.
Full length SMN2-A minigene and GAPDH mRNA are quantified using the primers and probes referenced in Table 2. Primer SMN Forward A (SEQ ID NO.1) hybridizes to a nucleotide sequence in exon 7 (nucleotide 22 to nucleotide 40), primer SMN Reverse A (SEQ ID NO.2) hybridizes to a nucleotide sequence in the coding sequence of Firefly luciferase, SMN Probe A (SEQ ID NO.3) hybridizes to a nucleotide sequence in exon 7 (nucleotide 50 to nucleotide 54) and exon 8 (nucleotide 1 to nucleotide 21). The combination of these three oligonucleotides detects only SMN1 or SMN2 minigenes (RT-qPCR) and will not detect endogenous SMN1 or SMN2 genes.
The SMN forward and reverse primers are used at final concentrations of 0.4 μM. The SMN probe is used at a final concentration of 0.15 μM. The GAPDH primers are used at final concentrations of 0.2 μM and the probe at 0.15 μM.
The SMN2-minigene GAPDH mix (15 μL total volume) is prepared by combining 7.5 of 2×RT-PCR buffer, 0.4 μL of 25×RT-PCR enzyme mix, 0.75 μL of 20× GAPDH primer-probe mix, […] of water, 2 μL of 10-fold diluted cell lysate, 0.06 μL of 100 μM SMN forward primer, 0.06 μL of 100 μM SMN reverse primer, and 0.225 μL of 100 μM SMN probe.
PCR is carried out at the following temperatures for the indicated time: Step 1: 48° C. (15 min); Step 2: 95° C. (10 min); Step 3: 95° C. (15 sec); Step 4: 60° C. (1 min); then repeat Steps 3 and 4 for a total of 40 cycles.
Each reaction mixture contains both SMN2-A minigene and GAPDH primers/probe sets (multiplex design), allowing simultaneous measurement of the levels of two transcripts.
The increase in the abundance of the FL SMN2mini mRNA relative to that in cells treated with vehicle control is determined from real-time PCR data using a modified ΔΔCt method (as described in Livak and Schmittgen, Methods, 2001, 25:402-8). The amplification efficiency E is calculated from the slope of the amplification curve for FL SMN2mini and GAPDH individually. The abundance of FL SMN2mini and GAPDH mRNA are then calculated as (1+E)^−Ct, where Ct is the threshold value for each amplicon. The abundance of FL SMN2mini mRNA is normalized to GAPDH mRNA abundance. The normalized FL SMN2mini mRNA abundance from test compound-treated samples is then divided by normalized FL SMN2mini mRNA abundance from vehicle-treated cells to determine the level of FL SMN2mini mRNA relative to vehicle control. […]

Experiment [2] deals with SMN protein in SMA patient fibroblast cells (GM03813). The experiment in a line: SMN protein assay (HTRF) in cultured cells. It is filed as cell-based. The settings on record: Homo sapiens, SMA Type 1 patient fibroblasts, 48 hours; for EC (1.5-fold): 7-point concentration curve, concentration giving 1.5 times SMN protein vs vehicle, read-out: EC1.5x SMN protein (EC1.5x concentration for SMN protein expression); for maximal fold induction: fold increase relative to vehicle control, read-out: Max. fold increase of SMN protein. The procedure: The SMN HTRF (homogeneous time resolved fluorescence) assay is used to quantify the level of SMN protein in SMA patient fibroblast cells treated with test compounds. Materials used and respective sources are listed below in Table 4.
Cells are thawed and cultured in DMEM-10% FBS for 72 hours. Cells are trypsinized, counted and re-suspended to a concentration of 25,000 cells/mL in DMEM-10% FBS. The cell suspensions are plated at 5,000 cells per well in a 96 well microtiter plate and incubated for 3 to 5 hours. Test compounds are serially diluted 3.16-fold in 100% DMSO to generate a 7-point concentration curve. 1 μL of test compound solution is transferred to cell-containing wells and cells are incubated for 48 hours in a cell culture incubator (37° C., 5% CO2, 100% relative humidity). Triplicate samples are set up for each test compound concentration. After 48 hours, the supernatant is removed from the wells and 25 μL of the RIPA lysis buffer, containing protease inhibitors, is added to the wells and incubated with shaking at room temperature for 1 hour. 25 μL of the diluent is added and then 35 μL of the resulting lysate is transferred to a 384-well plate, where each well contains 5 μL of the antibody solution (1:100 dilution of anti-SMN d2 and anti-SMN cryptate in SMN reconstitution buffer). The plate is centrifuged for 1 minute to bring the solution to the bottom of the wells, then incubated overnight at room temperature. Fluorescence for each well of the plate at 665 nm and 620 nm is measured on an EnVision multilabel plate reader (Perkin-Elmer).
The normalized fluorescence signal is calculated for each sample, Blank and vehicle control well by dividing the signal at 665 nm by the signal at 620 nm. Normalizing the signal accounts for possible fluorescence quenching due to the matrix effect of the lysate. The ΔF value (a measurement of SMN protein abundance as a percent value) for each sample well is calculated by subtracting the normalized average fluorescence for the Blank control wells from the normalized fluorescence for each sample well, then dividing this difference by the normalized average fluorescence for the Blank control wells and multiplying the resulting value by 100. The ΔF value for each sample well represents the SMN protein abundance from test compound-treated samples. The ΔF value for each sample well is divided by the ΔF value for the vehicle control wells to calculate the fold increase in SMN protein abundance relative to the vehicle control. Table 5 provides EC1.5× concentrations for SMN protein expression that was obtained from the 7-point concentration data generated according to the above procedure for particular compounds of the present invention.
Table 6 provides the maximum fold increase of SMN protein that was obtained from the 7-point concentration data generated according to the above procedure for particular compounds of the present invention

Counter-ions that a name gives are not always drawn.

Regarding `COc1cc(N2C[C@@H](C)N[C@@H](C)C2)ccc1C(=O)Nc1cn2cc(C)nc2cn1` [Example 31, 4-[(3R,5S)-3,5-dimethylpiperazin-1-yl]-2-methoxy-N-(2-methylimidazo[1,2-a]pyrazin-6-yl)benzamide], the EC (1.5-fold) in experiment [1] amounted to 0.0358 µM; in experiment [2], 0.221 µM. Also, the maximal fold induction in experiment [2] is 1.87.
For `CCOc1cc(N2CCCNCC2)ccc1C(=O)Nc1cn2cc(C)nc2cn1` [Example 9, 4-(1,4-diazepan-1-yl)-2-ethoxy-N-(2-methylimidazo[1,2-a]pyrazin-6-yl)benzamide] the same measures were 0.098 µM, 0.345 µM and 1.73.
For the compound `Cc1cn2cc(NC(=O)c3c(F)cc(N4CCN[C@H](C)C4)cc3F)nc(C)c2n1` [Example 14, N-(2,8-dimethylimidazo[1,2-a]pyrazin-6-yl)-2,6-difluoro-4-[(3R)-3-methylpiperazin-1-yl]benzamide], in experiment [1], the EC (1.5-fold) came to 0.0097 µM. Also, in experiment [2], the EC (1.5-fold) was determined as 0.124 µM and the maximal fold induction is 1.61.
The matching figures for `COc1cc(N2CCNC(C)(C)C2)ccc1C(=O)Nc1cn2cc(C)nc2cn1` [Example 41, 4-(3,3-dimethylpiperazin-1-yl)-2-methoxy-N-(2-methylimidazo[1,2-a]pyrazin-6-yl)benzamide]: 0.0464 µM, 0.242 µM and 2.05.
For `Cc1cn2cc(NC(=O)c3ccc(N4CCN5CCC[C@H]5C4)cc3F)ncc2n1` [Example 8, 4-[(8aS)-3,4,6,7,8,8a-hexahydro-1H-pyrrolo[1,2-a]pyrazin-2-yl]-2-fluoro-N-(2-methylimidazo[1,2-a]pyrazin-6-yl)benzamide] the same measures were 0.0407 µM, 0.351 µM and 1.77.
For `CC[C@@H]1CN(c2ccc(C(=O)Nc3cn4cc(C)nc4cn3)c(OC)c2)CCN1` [Example 40, 4-[(3R)-3-ethylpiperazin-1-yl]-2-methoxy-N-(2-methylimidazo[1,2-a]pyrazin-6-yl)benzamide], the figures for the EC (1.5-fold) in experiment [1] and in experiment [2] were 0.038 µM and 0.388 µM, respectively. Further, the maximal fold induction in experiment [2] was 1.93.
For `Cc1cn2cc(NC(=O)c3ccc(N4CCNC(C)C4)c(F)c3F)ncc2n1` (stereo not drawn) [Example 30, 2,3-difluoro-N-(2-methylimidazo[1,2-a]pyrazin-6-yl)-4-(3-methylpiperazin-1-yl)benzamide hydrochloride] the same measures were 0.165 µM, 0.603 µM and 1.82.
For `COc1cc(N2CC[C@@H](N3CCCC3)C2)ccc1C(=O)Nc1cn2cc(C)nc2cn1` [Example 39, 2-methoxy-N-(2-methylimidazo[1,2-a]pyrazin-6-yl)-4-[(3R)-3-pyrrolidin-1-ylpyrrolidin-1-yl]benzamide] the same measures were 0.118 µM, 0.379 µM and 1.75.
For `Cc1cn2cc(NC(=O)c3ccc(N4CCNC5(CC5)C4)cc3F)ncc2n1` [Example 26, 4-(4,7-diazaspiro[2.5]octan-7-yl)-2-fluoro-N-(2-methylimidazo[1,2-a]pyrazin-6-yl)benzamide hydrochloride] the same measures were 0.0596 µM, 1.61 µM and 1.57.
Turning to `CCOc1cc(N2CCN3CCC[C@@H]3C2)ccc1C(=O)Nc1cn2cc(C)nc2cn1` [Example 6, 4-[(8aR)-3,4,6,7,8,8a-hexahydro-1H-pyrrolo[1,2-a]pyrazin-2-yl]-2-ethoxy-N-(2-methylimidazo[1,2-a]pyrazin-6-yl)benzamide], the EC (1.5-fold) in experiment [1] was determined as 0.101 µM. In addition, in experiment [2], the EC (1.5-fold) was found to be 0.428 µM and the maximal fold induction amounted to 1.71.
